Experimental data published in patent US20090099253A1, “Internally Masked Neopentyl Sulfonyl Ester Cyclization Release Prodrugs of Acamprosate, Compositions Thereof, and Methods of Use” (XenoPort, Inc., priority 2007, published 2009).
Blank lines part the entries; values can stand above or below the compound they belong to.

Columns and labels:
[1] = system: cocaine conditioned mice; details: 100 mg/kg for 3 days; cited from earlier work
[2] = system: patients with alcohol dependence; details: patients with alcohol dependence abstinent at initiation of treatment; cited from earlier work
[3] = system: individual patients; details: doses from about 1,000 mg/day to about 2,000 mg/day; cited from earlier work
[4] = system: patients being treated for alcohol withdrawal; details: cited from earlier work
[5] = cited from earlier work
[6] = rat, in vivo
Method: Acamprosate or acamprosate prodrug was administered by oral gavage to groups of four to six adult male Sprague-Dawley rats (about 250 g). Animals were conscious at the time of the experiment. Acamprosate or acamprosate prodrug was orally (po) or colonically (ic) administered in 3.4% Phosal or 5% Phosal (53 MCT in 7.5% Tween 80 in 50 mM sodium phosphate buffer, pH 6.8) at a dose of 70 mg-equivalents acamprosate per kg body weight.
The percent relative bioavailability (F %) of acamprosate was determined by comparing the area under the acamprosate concentration vs time curve (AUC) following oral or colonic administration of an acamprosate prodrug or acamprosate with the AUC of the acamprosate concentration vs time curve following intravenous administration of acamprosate on a dose normalized basis.

Structure (SMILES): CC(=O)NCCCS(=O)(=O)O [acamprosate, 3-(Acetylamino)propylsulfonic acid]
- effect on relapse-like behavior [1]: attenuated relapse-like behavior
- maintaining abstinence from alcohol [2]: effective for maintaining abstinence from alcohol
- treatment of tardive dyskinesia, dystonia, and tic [3]: effective in treating tardive dyskinesia, dystonia, and tic
- effect on sleep [4]: improve sleep
- steady-state plasma concentration ([5]; doses of about 1-2 gm per day): 370 to 640 ng/mL
- time post-dose at which steady-state plasma concentration occurs ([5]; doses of about 1-2 gm per day): 3 to 8 h
- oral bioavailability ([5]; humans, oral): about 11%

- acamprosate colonic bioavailability relative to the acamprosate colonic bioavailability of an equivalent dose of acamprosate itself [6]: at least 5 times
Structure (SMILES): CC(=O)NCCCS(=O)(=O)OCC(C)(C)[C@@H]1COC(=O)O1 [Compound 12, 2-((4R)-2-Oxo(1,3-dioxolan-4-yl))-2-methylpropyl[3-(acetylamino)propyl]sulfonate]

- melting point: 63.1 to 64.8 °C
Structure (SMILES): CC(=O)NCCCS(=O)(=O)OCC1(C)CCC(=O)O1 (racemic) [Compound 6, rac-(2-Methyl-5-oxo-2-2,3,4-trihydrofuryl)methyl [3-(acetylamino)propyl]sulfonate]
